# In PubChem BioAssay (NCI):
#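 Five compound concentrations were applied to cells in 96-well plates for 48 hours; endpoints were derived by simple linear interpolation of the resulting dose-response curve. Here, GI50 denotes the concentration required for 50% inhibition of growth. TGI marks complete inhibition of growth.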
# Experiments:
# Assay in all cases: NCI tumour cell line growth inhibition, 48 h
# [1] = tested on: ACHN renal
# [2] = tested on: CAKI-1 renal
# [3] = tested on: NCI-H460 lung
# [4] = tested on: NCI-H522 lung
# [5] = tested on: OVCAR-5 ovarian
# [6] = tested on: SK-OV-3 ovarian
# [7] = tested on: SR leukemia
# [8] = tested on: MDA-MB-435
# [9] = tested on: PC-3 prostate
# [10] = tested on: MCF7 breast
structure (smiles),measurement,setting,value
COc1cc(/C=C(\C#N)C(=O)c2ccccc2)ccc1O,TGI,[1],> 100 µM
same,TGI,[2],> 100 µM
same,TGI,[3],> 100 µM
same,TGI,[4],> 100 µM
same,TGI,[5],> 100 µM
same,TGI,[6],> 100 µM
same,TGI,[7],> 100 µM
CN(C)c1ccc([O][Bi]([Cl])[Cl])cc1,GI50,[2],> 100 µM
same,TGI,[2],> 100 µM
same,GI50,[3],> 100 µM
same,TGI,[3],> 100 µM
same,GI50,[5],> 100 µM
same,TGI,[5],> 100 µM
same,GI50,[6],> 100 µM
same,TGI,[6],> 100 µM
same,GI50,[7],80.1 µM
same,TGI,[7],> 100 µM
COC(=O)C(=O)OC1(C(C)=O)CC2(c3ccccc3)OC1(c1ccccc1)c1ccccc12 (stereo unspecified),TGI,[2],39.9 µM
same,TGI,[3],36.2 µM
same,TGI,[4],34.7 µM
same,TGI,[5],63 µM
same,TGI,[6],95.5 µM
same,TGI,[7],> 100 µM
Oc1ccccc1C=NCc1ccco1,TGI,[1],> 100 µM
same,TGI,[3],> 100 µM
same,TGI,[5],> 100 µM
same,TGI,[6],> 100 µM
same,TGI,[7],> 100 µM
CC(=O)[CH-]C(=O)c1ccccc1.CC(=O)[CH-]C(=O)c1ccccc1.CC1(C)C2CCC1(C)C([O-])C2.CC1(C)C2CCC1(C)C([O-])C2.[Ti+4],GI50,[1],54.4 µM
same,TGI,[1],> 100 µM
same,GI50,[2],51.4 µM
same,TGI,[2],> 100 µM
same,GI50,[3],47.7 µM
same,TGI,[3],> 100 µM
same,GI50,[5],> 100 µM
same,TGI,[5],> 100 µM
same,GI50,[6],20.8 µM
same,TGI,[6],74.1 µM
BrC1=CC=C2NC=CC3=CC=NC1C32 (stereo unspecified),TGI,[1],> 93.8 µM
same,TGI,[3],17.9 µM
same,TGI,[4],27.3 µM
same,TGI,[5],> 75.5 µM
same,TGI,[6],> 100 µM
same,TGI,[7],26 µM
CCOc1ccc(-c2nonc2NC(=O)c2cccc(C)c2)cc1OCC,GI50,[1],> 100 µM
same,TGI,[1],> 100 µM
same,GI50,[2],74 µM
same,TGI,[2],> 100 µM
same,GI50,[8],> 100 µM
same,TGI,[8],> 100 µM
same,GI50,[3],> 100 µM
same,TGI,[3],> 100 µM
same,GI50,[4],> 100 µM
same,TGI,[4],> 100 µM
same,GI50,[5],> 100 µM
same,TGI,[5],> 100 µM
same,GI50,[9],> 100 µM
same,TGI,[9],> 100 µM
same,GI50,[6],> 100 µM
same,TGI,[6],> 100 µM
same,GI50,[7],> 100 µM
same,TGI,[7],> 100 µM
Cc1ccccc1C(=O)c1ccccc1O,TGI,[1],> 100 µM
same,TGI,[2],> 100 µM
same,TGI,[3],> 100 µM
same,TGI,[5],> 100 µM
same,TGI,[6],> 100 µM
O=C(CO)CC(=O)C(=O)Nc1ccccc1,TGI,[1],> 100 µM
same,TGI,[3],> 100 µM
same,TGI,[5],> 100 µM
same,TGI,[6],> 100 µM
same,TGI,[7],> 100 µM
O=c1nc2n(-c3ccc(Cl)cc3)c3ccc([N+](=O)[O-])cc3cc-2c(=O)[nH]1,GI50,[1],57.4 µM
same,TGI,[1],> 100 µM
same,GI50,[2],21.5 µM
same,TGI,[2],60.1 µM
same,GI50,[8],15.8 µM
same,TGI,[8],37.7 µM
same,GI50,[3],23.1 µM
same,TGI,[3],> 100 µM
same,GI50,[4],22.2 µM
same,TGI,[4],57.2 µM
same,GI50,[5],28.8 µM
same,TGI,[5],73.8 µM
same,GI50,[9],23.5 µM
same,TGI,[9],78.5 µM
same,GI50,[6],41.7 µM
same,TGI,[6],> 100 µM
Cn1c(=O)nc2n(-c3cccc(Br)c3)c3ccccc3nc-2c1=O,TGI,[1],13.7 µM
same,TGI,[2],32.7 µM
same,TGI,[3],12.2 µM
same,TGI,[4],20.1 µM
same,TGI,[5],26.1 µM
same,TGI,[6],50.5 µM
N#CC(C(=O)/C(=N/N)C(C#N)c1ccccc1)c1ccccc1 (stereo unspecified),TGI,[1],> 100 µM
same,TGI,[2],> 100 µM
same,TGI,[3],> 100 µM
same,TGI,[4],> 100 µM
same,TGI,[5],> 100 µM
same,TGI,[6],> 100 µM
O=C1c2cc3c(cc2-c2c1c1ccc(Cl)cc1c(=O)n2CCCNCCO)OCO3,GI50,[1],0.0383 µM
same,TGI,[1],1.44 µM
same,GI50,[2],0.0684 µM
same,TGI,[2],2.29 µM
same,GI50,[10],0.0176 µM
same,TGI,[10],0.179 µM
same,GI50,[8],1.03 µM
same,TGI,[8],2.49 µM
same,GI50,[3],0.0342 µM
same,TGI,[3],1.34 µM
same,GI50,[4],0.0372 µM
same,TGI,[4],1.58 µM
same,GI50,[5],1.71 µM
same,TGI,[5],3.71 µM
same,GI50,[9],1.07 µM
same,TGI,[9],2.55 µM
same,GI50,[6],0.212 µM
same,TGI,[6],1.74 µM
CCC/C(=N/N=C(N)N)c1ccc(NC(=O)c2cc3cc(OC)ccc3[nH]2)cc1,GI50,[1],13.1 µM
same,TGI,[1],33.1 µM
same,GI50,[10],2.76 µM
same,TGI,[10],12.2 µM
same,GI50,[8],3.81 µM
same,TGI,[8],21.7 µM
same,GI50,[4],12.7 µM
same,TGI,[4],33.9 µM
same,GI50,[5],14.7 µM
same,TGI,[5],32.3 µM
same,GI50,[6],13.9 µM
same,TGI,[6],29.6 µM
Clc1cc(Cc2cc(Cl)c(Cl)c3c2OCOC3)c2c(c1Cl)COCO2,TGI,[1],> 100 µM
same,TGI,[2],49.7 µM
same,TGI,[3],> 100 µM
same,TGI,[4],> 100 µM
same,TGI,[5],> 100 µM
same,TGI,[6],64.4 µM
same,TGI,[7],> 100 µM
O=C1NC(=O)C2C(=O)NC(=O)C1C2(c1ccccc1)c1cc[nH]c1 (stereo unspecified),TGI,[1],> 100 µM
same,TGI,[2],> 100 µM
same,TGI,[3],> 100 µM
same,TGI,[4],> 100 µM
same,TGI,[5],> 100 µM
same,TGI,[6],> 100 µM
CC(=O)[CH-]C(=O)c1ccccc1.CC(=O)[CH-]C(=O)c1ccccc1.[Eu+3].[OH-].[OH3+],GI50,[1],> 100 µM
same,TGI,[1],> 100 µM
same,GI50,[2],> 100 µM
same,TGI,[2],> 100 µM
same,GI50,[3],> 100 µM
same,TGI,[3],> 100 µM
same,GI50,[6],> 100 µM
same,TGI,[6],> 100 µM
